# Like-named read-outs stand apart in the source and are kept apart here.
# Legend:
# human hepatocytes = conditions: cited from earlier work
# Upcyte human hepatocytes = conditions: In vitro Assay; ref Tolosa 2019; cited from earlier work
# PHH = conditions: cited from earlier work
# [1] = read-out: Human plasma Cmax; total plasma Cmax.tot, median of 9 literature references; cited from earlier work
# hLiMTs [2] = conditions: cited from earlier work
# [3] = cited from earlier work
# HepG2 cells [4] = conditions: cited from earlier work
# [5] = Plasma free fraction (fu) and unbound Cmax (Cmax,u); format: in vitro ADME, human; conditions: unbound plasma Cmax
# Experimental: The prediction of DILI severity was evaluated further using the 3D combined HCI assays using plasma-free fraction. The majority of fu values were obtained from literature, when unavailable in-house prediction was utilised. Unbound plasma Cmax concentrations (Cmax,u) were derived by multiplying total plasma Cmax with the corresponding free fraction (fu) for each compound.
# rBsep = conditions: In vitro Assay; ref Dawson 2012; cited from earlier work
# [6] = tested on: THLE or HepG2 cells, isolated mitochondria, BSEP; conditions: cited from earlier work
# [7] = tested on: THLE-Null and THLE-3A4 cells; conditions: In vitro Assay; ref Gustafsson 2014; cited from earlier work
# PHH spheroids = conditions: cited from earlier work
# [8] = cited from earlier work; remark: listed apart in the source
# HepaRG spheroids = experiment: Combined HCI (HCS) and cellular ATP 3D assay in HepaRG spheroids; conditions: for AC50 / minimal effective concentration: Homo sapiens
# hLiMTs [9] = experiment: Combined HCI (HCS) and cellular ATP 3D assay in hLiMTs; conditions: for AC50 / minimal effective concentration: Homo sapiens
# [10] = ref Chen 2011; cited from earlier work
# [11] = plasma free fraction; cited from earlier work
# [12] = tested on: HepG2 cells, primary human hepatocytes; conditions: In vitro Assay; ref Garside 2014; cited from earlier work
# HepG2 cells [13] = conditions: cited from earlier work; remark: listed apart in the source
# [14] = In vitro Assay, ref Proctor 2017
# [15] = Modeled in vitro assays (cytotoxicity, mitochondrial dysfunction, BSEP), ref Aleo et al. 2019
# [16] = Microtissue model structural based (HCI), combined HCS and ATP, MEC < 25 × Cmax.tot cut-off
smiles,measurement,setting,value
Cn1cnc([N+](=O)[O-])c1Sc1ncnc2nc[nH]c12 [azathioprine],Structural based (HCI),"human hepatocytes; In vitro Assay, ref Xu 2008",+VE
same,"DILI in vitro assay prediction, Xu (2008)","human hepatocytes; Structural based (HCI), human hepatocytes, ref Xu et al. 2008",+VE
same,Upcytes multi donor assay 14day data,Upcyte human hepatocytes,+VE
same,"PHH/100xCmax, Proctor (2017)","PHH; 2D PHH, ATP, IC50 < 100 × Cmax.tot, ref Proctor et al. 2017",-VE
same,"PHH/100uM, Proctor (2017)","PHH; 2D PHH, ATP, IC50 threshold 100 µM, ref Proctor et al. 2017",-VE
same,PHH ATP <100uM,PHH; [14],-VE
same,Cmax,[1],7.21 µM
same,hLiMTs ATP <100uM,hLiMTs [2]; [14],+VE (IC50 threshold of 100 µM)
same,"hLiMTs/100xCmax, Proctor (2017)","hLiMTs [2]; hLiMTs, ATP, IC50 < 100 × Cmax.tot, ref Proctor et al. 2017",+VE (IC50 < 100 × Cmax.tot)
same,"hLiMTs/100uM, Proctor (2017)","hLiMTs [2]; hLiMTs, ATP, IC50 threshold 100 µM, ref Proctor et al. 2017",+VE (IC50 threshold of 100 µM)
same,Assigned DILI category,"[3]; Chen et al. 2016 or literature alignment, ref Chen et al. 2016",3
same,In vivo DILI,[3]; […],+VE
same,In vivo DILI,[3]; ref Aleo 2019,+VE
same,In vivo DILI,[3]; ref Dawson 2012,+VE
same,In vivo DILI,[3]; ref Garside 2014,+VE
same,In vivo DILI,[3]; ref Gustafsson 2014,+VE
same,In vivo DILI,[3]; ref O'Brien 2006,+VE
same,In vivo DILI,[3]; ref Proctor 2017,+VE
same,In vivo DILI,[3]; ref Tolosa 2012,+VE
same,In vivo DILI,[3]; ref Tolosa 2019,+VE
same,In vivo DILI,[3]; ref Vorrink 2018,+VE
same,In vivo DILI,[3]; ref Xu 2008,+VE
same,Structural based (HCI),"HepG2 cells [4]; In vitro Assay, ref Tolosa 2012",+VE
same,"DILI in vitro assay prediction, Tolosa (2012)","HepG2 cells [4]; Structural based (HCI), HepG2, ref Tolosa et al. 2012",+VE
same,"Human plasma Cmax,u",[5],5.048 µM
same,Inhibition of rBsep cutoff<1& cmax u>.2,rBsep,-VE
same,Inhibition of rBsep cutoff<3,rBsep,-VE
same,Partition Hybrid HRM Score,"[6]; In vitro Assay, ref Aleo 2019",-VE
same,Ro2 Hybrid HRM Score,"[6]; In vitro Assay, ref Aleo 2019",+VE
same,"Partition Hybrid HRM Score ≥4, Aleo (2019)",[6]; [15],-VE
same,"Partition Hybrid HRM Score ≥8, Aleo (2019)",[6]; [15],-VE
same,"Rule of Two hybrid HRM Score ≥3, Aleo (2019)",[6]; [15],+VE (Rule of Two hybrid HRM Score ≥3)
same,"Rule of Two hybrid HRM Score ≥8, Aleo (2019)",[6]; [15],-VE
same,THLE-Null,[7],-VE
same,THLE-Null/3A4,[7],-VE
same,hLiMTs ATP <20 x Cmax,"PHH spheroids; In vitro Assay, ref Vorrink 2018",+VE (IC20 < 20 × Cmax.tot cut-off)
same,"DILI in vitro assay prediction, Vorrink (2018)","PHH spheroids; PHH spheroids, ATP, 14 days, IC20 < 20 × Cmax.tot, ref Vorrink et al. 2018",+VE (IC20 < 20 × Cmax.tot cut-off)
same,DILI severity category (Chen et al. [2016]),"[8]; LTKB DILIrank category, ref Chen et al. 2016",Most
same,DILI severity category (Chen 2016),"[8]; human DILI classification, LTKB DILIrank, ref Chen et al. 2016",Most
same,DILI severity category,"[8]; human DILI severity, ref Chen et al.",Most
same,"DILI +VE (5-8), DILI -VE (-4)",[8]; ref Chen 2016,+VE
same,DILI severity category,[8]; ref Chen 2016,vMost-DILI-Concern
same,HepaRG <25x Avg Cmax ATP,"HepaRG spheroids; HepaRG, ATP endpoint, cut-off <25x Avg Cmax",+ve
same,HepaRG <100x Avg Cmaxu ATP,"HepaRG spheroids; HepaRG, ATP endpoint, cut-off <100x Avg Cmaxu",+ve (<100x Avg Cmaxu)
same,HepaRG <25x Avg Cmax HCS,"HepaRG spheroids; HepaRG, HCS endpoints, cut-off <25x Avg Cmax",+ve
same,HepaRG <100x Avg Cmaxu HCS,"HepaRG spheroids; HepaRG, HCS endpoints, cut-off <100x Avg Cmaxu",+ve (<100x Avg Cmaxu)
same,HepaRG <25x Avg Cmax All,"HepaRG spheroids; HepaRG, all endpoints (ATP and HCS), cut-off <25x Avg Cmax",+ve
same,HepaRG Cmax max All,"HepaRG spheroids; HepaRG, all endpoints, Cmax max used",+ve
same,HepaRG Cmax min All,"HepaRG spheroids; HepaRG, all endpoints, Cmax min used",+ve
same,HepaRG <10 uM All,"HepaRG spheroids; HepaRG, all endpoints, cut-off <10 uM",+ve (<10 uM)
same,HepaRG <100x Avg Cmaxu All,"HepaRG spheroids; HepaRG, all endpoints, cut-off <100x Avg Cmaxu",+ve (<100x Avg Cmaxu)
same,AC50,"HepaRG spheroids; HepaRG, read-out: ATP endpoint AC50",480 nM
same,minimal effective concentration,"HepaRG spheroids; HepaRG, read-out: ATP endpoint MEC",0.278 µM
same,AC50,"HepaRG spheroids; HepaRG, read-out: HCS endpoint AC50",2000 nM
same,minimal effective concentration,"HepaRG spheroids; HepaRG, read-out: HCS endpoint MEC",0.0805 µM
same,DILI prediction HepaRG spheroids (HCS-MEC),HepaRG spheroids; [16],+VE (MEC < 25 × Cmax.tot cut-off)
same,AC50,hLiMTs [9]; read-out: ATP endpoint AC50,1180 nM
same,minimal effective concentration,hLiMTs [9]; read-out: ATP endpoint MEC,0.361 µM
same,AC50,hLiMTs [9]; read-out: HCS endpoint AC50,41600 nM
same,minimal effective concentration,hLiMTs [9]; read-out: HCS endpoint MEC,1.58 µM
same,DILI prediction hLiMTs (HCS-MEC),hLiMTs [9]; [16],+VE (MEC < 25 × Cmax.tot cut-off)
same,hLiMTs <25x Avg Cmax ATP,"hLiMTs [9]; hLiMTs, ATP endpoint, cut-off <25x Avg Cmax",+ve
same,hLiMTs <100x Avg Cmaxu ATP,"hLiMTs [9]; hLiMTs, ATP endpoint, cut-off <100x Avg Cmaxu",+ve (<100x Avg Cmaxu)
same,hLiMTs <25x Avg Cmax HCS,"hLiMTs [9]; hLiMTs, HCS endpoints, cut-off <25x Avg Cmax",+ve
same,hLiMTs <100x Avg Cmaxu HCS,"hLiMTs [9]; hLiMTs, HCS endpoints, cut-off <100x Avg Cmaxu",+ve (<100x Avg Cmaxu)
same,hLiMTs <25x Avg Cmax All,"hLiMTs [9]; hLiMTs, all endpoints (ATP and HCS), cut-off <25x Avg Cmax",+ve
same,hLiMTs Cmax max All,"hLiMTs [9]; hLiMTs, all endpoints, Cmax max used",+ve
same,hLiMTs Cmax min All,"hLiMTs [9]; hLiMTs, all endpoints, Cmax min used",+ve
same,hLiMTs <10 uM All,"hLiMTs [9]; hLiMTs, all endpoints, cut-off <10 uM",+ve (<10 uM)
same,hLiMTs <100x Avg Cmaxu All,"hLiMTs [9]; hLiMTs, all endpoints, cut-off <100x Avg Cmaxu",+ve (<100x Avg Cmaxu)
same,DILI Score (FDA) (1-8),[10],3
same,fu,[11],0.700
same,Cluster 1-6 +VE Assay,[12],-VE
same,Structural based (HCI),"HepG2 cells [13]; In vitro Assay, ref O'Brien 2006",+VE
same,"DILI in vitro assay prediction, O'Brien (2006)","HepG2 cells [13]; Structural based (HCI), HepG2, ref O'Brien et al. 2006",+VE (lowest HCI endpoint IC50 (or in the absence of dose–response < 100 µM) < 30 × total human plasma exposure levels (Cmax.tot))

# From article PMC7395068, “The evolution of strategies to minimise the risk of human drug-induced liver injury (DILI) in drug discovery and development” (Archives of Toxicology, 2020)
